Laboratory results reported in patent publication US4886806A, “Flavone-3-carboxylic acids compounds and pharmaceutical compositions containing them” (Kali-Chemie Pharma GmbH, priority 1987, dated 1989).

What was measured:
[1] = tested on: oxygen radical-forming activity of activated peritoneal exudate cells (PEC) of mice; experiment: Peak chemiluminescence (CL) test: inhibition of oxygen radical liberation from activated peritoneal exudate cells; assay type: cell-based; conditions: Mus musculus, 10^-4 Mol substance/l, added at peak of cell activity, read-out: Inhibition in vitro of the oxygen radical liberation, Chemiluminescence Test % inhibition, Pk. CL
Method: 1. To determine the inhibiting effect on the oxygen radical-forming activity of inflamed cells, the in vitro inhibition of the release of oxygen radicals from activated peritoneal exudate cells (=PEC) of mice was determined in the chemiluminescence (CL) test according to the method of Mueller-Peddinghaus (Int. J. Immunopharmac. 6, 455-466 (1984)). […] The intensity of the chemiluminescence is a measurement of the oxygen radical content in the suspension and thus the degree of activity of the inflamed cells. In this, three functionally different parameters are detected, the spontaneous CL, the induced CL and the peak CL. The spontaneous CL and the induced CL on the one hand and the peak CL on the other hand differ from each other because in the first two parameters the test substances are in contact with the cells for a 30 minute preincubation period before the inflammation irritant is added, whereas with the peak CL the cells are first stimulated, and the test substance is added at the peak of their activity. The measurement of the spontaneous CL thus detects the influence of the test substance on the relative rest activity of inflamed cells, the induced CL represents the effect of the test substances on the activatability of the cells and the inhibition of the peak CL indicates the effect of the test substances on the maximum activity of the inflamed cells. 1.1 Production of PEC suspension used in the test. In order to induce the PEC formation, female mice of 20-25 g body weight were each injected i.p. with 2 ml of a 3% solution of thioglycollate in sterile isotonic sodium chloride solution. Twenty four hours after the thioglycollate injection the cells, which predominantly consisted of polymorphonuclear leucocytes, were recovered by washing out of the abdominal cavity and washed twice. As cell culture medium there was added a commercially available solution under the designation RPMI 1640 (pH 7.2) (produced by Flow Laboratories, […], Germany), which contains 10% fetal calf serum (FCS, produced by Seromed GmbH, Munich, Germany) 18 μmol/l sodium bicarbonate and 2 μmol/l L-glutamine. The cell pellets of four animals each time were resuspended in cell culture medium, collected together and the suspension was made up to 2×10^6 cells per ml with cell culture medium. The cell suspensions were kept under ice cooling until their use the same day. 1.2 Production of the complement opsonized zymosan (=ZyC3 b) suspension used for activation. 200 mg zymosan (glycoprotein mixture isolated from the cell walls of brewer's yeast, Sacchomyces […], produced by Sigma Chemical Co., Munich, Germany) were suspended in 10 ml phosphate buffer solution according to Dulbecco (produced by Flow Laboratories, […], Germany), well stirred and heated for thirty minutes in a water bath to 100° C. After cooling, it was centrifuged for five minutes at 4° C. and at 600 ×g and the supernatant was discarded. The sediment was resuspended in 50 ml human serum and incubated for thirty minutes at 37° C. in a shaking water bath. Then it was centrifuged for five minutes at 600 ×g and 420 C., the supernatant decanted and the sediment washed with phosphate buffer solution. The working suspension of 8×10^-3 g ZyC3 b/ml was produced from the sediment by dilution with phosphate buffer solution (Mueller-Peddinghaus et al., Zbl. Vet. Med. B. 30, 559-575). 1.3 Chemiluminescence (CL) measurement (Peak-CL). The PEC suspension was divided into samples of 100 μl each, placed in test tubes, and these were incubated for ten minutes at a temperature of 3720 C. in a measurement device (Chemiluminescence analyzer, Laboratorium Prof. Berthold, Wildbad, Germany). Then in order to amplify the chemiluminescence, 100 μl lucigenin solution was added (final concentration 1.54×10^-4 mol/l) and incubated for 16 more minutes. The cells were then activated by the addition of 100 μl of the ZyC3 b suspension produced as described in section 1.2 plus 100 μl phosphate buffer solution. […]

[2] = tested on: oxygen radical-forming activity of peritoneal exudate cells (PEC) of mice; experiment: Spontaneous CL and induced CL chemiluminescence test: inhibition of oxygen radical liberation from peritoneal exudate cells (30 min preincubation); assay type: cell-based; set-up: concentration or dose not given beside the values; conditions: for Inhibition in vitro of the oxygen radical liberation, Chemiluminescence Test % inhibition, Ind. CL: induced CL, after ZyC3b activation; for Inhibition in vitro of the oxygen radical liberation, Chemiluminescence Test % inhibition, Spnt. CL: spontaneous CL, before ZyC3b
Method: 1. To determine the inhibiting effect on the oxygen radical-forming activity of inflamed cells, the in vitro inhibition of the release of oxygen radicals from activated peritoneal exudate cells (=PEC) of mice was determined in the chemiluminescence (CL) test according to the method of Mueller-Peddinghaus (Int. J. Immunopharmac. 6, 455-466 (1984)). […] The intensity of the chemiluminescence is a measurement of the oxygen radical content in the suspension and thus the degree of activity of the inflamed cells. In this, three functionally different parameters are detected, the spontaneous CL, the induced CL and the peak CL. The spontaneous CL and the induced CL on the one hand and the peak CL on the other hand differ from each other because in the first two parameters the test substances are in contact with the cells for a 30 minute preincubation period before the inflammation irritant is added, whereas with the peak CL the cells are first stimulated, and the test substance is added at the peak of their activity. The measurement of the spontaneous CL thus detects the influence of the test substance on the relative rest activity of inflamed cells, the induced CL represents the effect of the test substances on the activatability of the cells and the inhibition of the peak CL indicates the effect of the test substances on the maximum activity of the inflamed cells. 1.1 Production of PEC suspension used in the test. In order to induce the PEC formation, female mice of 20-25 g body weight were each injected i.p. with 2 ml of a 3% solution of thioglycollate in sterile isotonic sodium chloride solution. Twenty four hours after the thioglycollate injection the cells, which predominantly consisted of polymorphonuclear leucocytes, were recovered by washing out of the abdominal cavity and washed twice. As cell culture medium there was added a commercially available solution under the designation RPMI 1640 (pH 7.2) (produced by Flow Laboratories, […], Germany), which contains 10% fetal calf serum (FCS, produced by Seromed GmbH, Munich, Germany) 18 μmol/l sodium bicarbonate and 2 μmol/l L-glutamine. The cell pellets of four animals each time were resuspended in cell culture medium, collected together and the suspension was made up to 2×10^6 cells per ml with cell culture medium. The cell suspensions were kept under ice cooling until their use the same day. 1.2 Production of the complement opsonized zymosan (=ZyC3 b) suspension used for activation. 200 mg zymosan (glycoprotein mixture isolated from the cell walls of brewer's yeast, Sacchomyces […], produced by Sigma Chemical Co., Munich, Germany) were suspended in 10 ml phosphate buffer solution according to Dulbecco (produced by Flow Laboratories, […], Germany), well stirred and heated for thirty minutes in a water bath to 100° C. After cooling, it was centrifuged for five minutes at 4° C. and at 600 ×g and the supernatant was discarded. The sediment was resuspended in 50 ml human serum and incubated for thirty minutes at 37° C. in a shaking water bath. Then it was centrifuged for five minutes at 600 ×g and 420 C., the supernatant decanted and the sediment washed with phosphate buffer solution. The working suspension of 8×10^-3 g ZyC3 b/ml was produced from the sediment by dilution with phosphate buffer solution (Mueller-Peddinghaus et al., Zbl. Vet. Med. B. 30, 559-575). 1.3 Chemiluminescence (CL) measurement (Peak-CL). […] At the end of this preincubation phase, 100 μl lucigenin were added, and in the course of the subsequent sixteen minute incubation phase the spontaneous CL parameter was determined with two measuring points. Then 100 μl ZyC3 b+100 μl phosphate buffer were added, and during the course of the subsequent twenty-four minute cell activation the induced CL parameter was measured with three measuring points. All measurements were determined twice. The parameters spontaneous CL and induced CL were determined on the same day with two separate cell pools.

male mice = experiment: Determination of the minimum toxic dose; assay type: in vivo; conditions: max. dose 300 mg/kg, 24 h
Method: 3. Determination of the minimum toxic dose.
Male mice of 20 to 25 g weight were given maximal doses of 300 mg/kg of test substance per os. The animals were carefully watched over a period of three hours for toxicity symptoms. Over a period of twenty-four hours after administration, all symptoms and deaths were recorded. Associated symptoms were also watched and recorded. If death or strongly toxic symptoms were noted, further mice were given increasingly lower doses. The lowest dose which brought about death or strongly toxic symptoms was reported as the minimum toxic dose.

[3] = tested on: carrageenin foot edema in male Wistar rats; experiment: Inhibition of carrageenin foot edema in rats (Winter et al.); assay type: in vivo; conditions: Rattus norvegicus, 2 h after irritant
Method: A similar volume of isotonic sodium chloride solution was injected in the left hind foot. The volume of the each rat's foot was measured plethysmometrically both before and two hours after administration of the irritant, and the swelling of the foot volume after the carrageenin application was compared to the foot which was treated only with sodium chloride solution The inhibition of edema formation by the test substances in the treated animals was compared in percentage terms with the animals of the untreated control group.

SMILES | inhibition at 100 µM (stock) [1] [%] | Inhibition in vitro of the oxygen radical liberation, Chemiluminescence Test % inhibition, Ind. CL [2] [%] | Inhibition in vitro of the oxygen radical liberation, Chemiluminescence Test % inhibition, Spnt. CL [2] [%] | Minimal toxic dose mg/kg mouse p.o. (male mice) [mg/kg] | inhibition in vivo at 215 µmol/kg ([3]; ip, 215 μmol/kg i.p.) [%] | inhibition in vivo at 215 µmol/kg ([3]; po, 215 μmol/kg p.o.) [%] | inhibition in vivo at 100 µmol/kg ([3]; po, 100 μmol/kg p.o.) [%]
O=C(c1c(-c2ccccc2)oc2ccccc2c1=O)N1CC[N+]([O-])(Cc2ccccc2)CC1 [Example 5, 3-[(4-benzylpiperazin-1-yl)-carbonyl]-flavone N-oxide] | 12 | 25 | 49 | > 300 | – | – | –
COc1cc(-c2oc3ccccc3c(=O)c2C(=O)NCCCCN2CCN(c3ccccn3)CC2)cc(OC)c1OC [Example 6b, 3',4',5'-Trimethoxy-3-{4-[4-(2-pyridyl)-piperazin-1-yl]-butylaminocarbonyl}flavone] | – | – | – | – | 75 | – | –
O=C(c1c(-c2cc(O)c(O)c(O)c2)oc2ccccc2c1=O)N1CCN(c2ccccn2)CC1 [Example 10b, 3',4',5'-Trihydroxy-3-{[4-(2-pyridyl)-piperazin-1-yl]-carbonyl}flavone] | – | – | – | – | 35 | 30 | –
CN1CCN(C(=O)c2c(-c3ccccc3)oc3ccccc3c2=O)CC1 [Example 16a] | – | – | – | – | – | – | 20
O=C(NC1CCN(Cc2ccccc2)CC1)c1c(-c2ccccc2)oc2ccccc2c1=O [Example 18b] | 41 | 50 | 30 | 300 | – | – | –
O=C(NCCN1CCCC1)c1c(-c2ccccc2)oc2ccccc2c1=O [Example 20b] | 27 | 43 | 72 | 100 | – | – | –
CCN(CC)CCNC(=O)c1c(-c2ccccc2)oc2ccccc2c1=O [Example 22b] | 25 | 43 | 67 | 300 | – | – | –
O=C(NCCCCN1CCN(Cc2ccccc2)CC1)c1c(-c2ccccc2)oc2ccccc2c1=O [Example 23] | 63 | 88 | 95 | 300 | – | – | –
O=C(NCCCCN1CCN(c2ncccn2)CC1)c1c(-c2ccccc2)oc2ccccc2c1=O [Example 25] | – | – | – | – | 58 | 25 | –
COc1ccc(-c2oc3ccccc3c(=O)c2C(=O)N2CCN(C)CC2)cc1 [Example 28] | 5 | 29 | 54 | > 300 | – | – | –
CCCCCCCCCCCCCCCCOc1ccc(-c2oc3ccccc3c(=O)c2C(=O)N2CCN(Cc3ccccc3)CC2)cc1 [Example 36] | – | – | – | – | – | 30 | –
COc1cc(-c2oc3ccccc3c(=O)c2C(=O)NCCCN2CCOCC2)cc(OC)c1OC [Example 46] | 11 | 25 | 52 | > 300 | – | – | –
COc1cc(-c2oc3ccccc3c(=O)c2C(=O)OCCN2CCN(c3ccccn3)CC2)cc(OC)c1OC [Example 47] | 70 | 76 | 78 | 100 | – | – | –
COc1cc(-c2oc3ccccc3c(=O)c2C(=O)OCCN2CCCC2)cc(OC)c1OC [Example 49] | 41 | 64 | 86 | 300 | – | – | –
COc1cc(-c2oc3ccccc3c(=O)c2C(=O)NCCCC[N+]2([O-])CC[N+]([O-])(Cc3ccccc3)CC2)cc(OC)c1OC (centres unmarked) [Example 52] | – | – | – | – | 53 | – | –
CCC(=O)Oc1cc(-c2oc3ccccc3c(=O)c2C(=O)N2CCN(c3ccccn3)CC2)cc(OC(=O)CC)c1OC(=O)CC [Example 56] | 37 | 70 | 52 | – | – | – | –
